Reference: publication PMC7824826, “SZR-104, a Novel Kynurenic Acid Analogue with High Permeability through the Blood–Brain Barrier” (Pharmaceutics, 2021)
One block for each compound: values may come before it.

What was measured:
[1] = test system: in vitro blood–brain barrier model (primary rat brain endothelial cells and pericytes on Transwell filters, glial-conditioned media); assay: Permeability assay through the in vitro BBB model; assay type: in vitro ADME; conditions: for Papp% (permeability coefficient compared to sodium-fluorescein) / Papp % (permeability coefficient compared to KYNA): 10 µM in top compartment; for Papp% (permeability coefficient compared to sodium-fluorescein): N = 2, relative to sodium-fluorescein; for Permeability compared to other analogues: p < 0.05; for BBB penetration compared to the other derivatives tested: conclusion; for Papp % (permeability coefficient compared to KYNA): N = 3, relative to KYNA; for Differences among permeability of KYNA, xanthurenic acid and 39B: 30 and 60 min
Description: Primary rat brain endothelial cells (RBECs) were isolated from 2-week old rats. Animals were sacrificed by cervical dislocation. Briefly, after removal of meninges, cerebral cortices were cut into small pieces and digested in two steps with 1 mg/mL collagenase type 2 and 1 mg/mL collagenase/dispase, followed by centrifugation on a percoll gradient (all from Sigma-Aldrich, St. Louis, MO, USA). Isolated microvessels were plated on fibronectin/collagen-coated dishes. Endothelial cells growing out of the microvessels were cultured in DMEM/F12 (Thermo Fisher Scientific, Waltham, MA, USA), 10% plasma-derived serum (PDS, First Link UK Ltd, Birmingham, UK) and growth factors. In the first two days, 4 µg/mL puromycin (Sigma-Aldrich) was added to remove contaminating cells. Cells were frozen in liquid nitrogen and passage 1 cells were further used. Rat brain pericytes were obtained from cerebral microvessels plated onto rat-tail collagen-coated dishes in PM medium (ScienCell, Carlsbad, CA, USA) complemented with 5% fetal bovine serum (FBS) and penicillin/streptomycin. Cells were split into new dishes, frozen in liquid nitrogen and passage 4 cells were further used. Glial cultures (>90% astrocytes) were prepared from newborn rats and cultured on poly-L-lysine-coated surfaces in DMEM (Thermo Fisher Scientific) and 10% FBS (Thermo Fisher Scientific). After reaching confluence, conditioned media was collected twice a week, centrifuged, sterile filtered and kept at −20 °C.
Pericytes were plated onto the backside of 12-well semipermeable filters (Corning-Costar Transwell Clear; pore size: 0.4 μm; 1.5 × 10^4 cells/filter). The next day, RBECs were plated onto the upper surface of the filters. […] TEER was followed until reaching plateau of 150–250 Ohm × cm^2.
Transwell filters containing endothelial cells and pericytes were removed from the CellZscope instrument. Filters were washed with Ringer-HEPES solution (pH = 7.4). […] The bottom compartment was loaded with Ringer-HEPES. Filters were placed to 37 °C and gentle shaking (110 rpm) was applied. Samples were taken from the basolateral side after 30 and 60 min. The concentrations of the samples were quantitated as described below and apparent permeability was calculated using the formula: Papp = dQ/(dT × A × C0), where dQ is the transported amount, dT is the incubation time, A is the surface of filter (1.12 cm^2), and C0 is the initial concentration. Statistical analysis was performed with ANOVA and Bonferroni’s post-hoc test.
The concentrations of the samples were quantitated with an Agilent 1100 HPLC system (Agilent Technologies, Santa Clara, CA, USA), consisting of a binary pump, a micro vacuum degasser, a thermostated column compartment, an automatic liquid sampler, a MS detector (LCMSD VL), and ChemStation data managing software. Chromatographic separations with the HPLC-MS system were performed on a Kinetex C18 column, 100 × 4.6 mm 2.6 μm particle size (Phenomenex, Torrance, CA, USA) with a mobile phase composition of 0.05% aqueous HCOOH/ACN = 90/10 (v/v), applying isocratic elution. The flow rate and the injection volume were 1 mL/min and 20 µL, respectively. The mass spectrometer was used in positive electrospray ionization mode. The drying gas temperature, drying gas flow rate, nebulizer pressure and capillary voltage were 350 °C, 13 L/min, 60 psi and 3500 V, respectively. […]

[2] = test system: human lymphoma U-937 cells; design: method as in PMID 31316502; conditions: U-937 cells infected with Staphylococcus aureus; cited from earlier work
hippocampus = test system: hippocampus; design: method as in PMID 22231843; conditions: systemic administration; cited from earlier work
[3] = test system: transgenic mouse model of HD; design: method as in PMID 21194001; conditions: cited from earlier work
NTC = test system: NTC; design: method as in PMID 27919017; conditions: cited from earlier work
[4] = test system: PACAP mRNA expression in nucleus trigeminalis caudalis; design: method as in PMID 29387039; conditions: animal model of migraine; cited from earlier work
MAPK and NFκB = conditions: intraperitoneally administered; cited from earlier work
[5] = test system: c-fos and glutamate in NTC neurons; design: method as in PMID 28337634; conditions: systematic injection; cited from earlier work

Structure (SMILES): O=C(O)c1cc(O)c2cccc(O)c2n1 [xanthurenic acid]
- Papp % (permeability coefficient compared to KYNA) ([1]; 30 min): 110%
- Papp % (permeability coefficient compared to KYNA) ([1]; 60 min): 89%
- Differences among permeability of KYNA, xanthurenic acid and 39B ([1]; 10 µM): not statistically significant

Structure (SMILES): CN(C)CCNC(=O)c1nc2ccccc2c(O)c1CN1CCOCC1 [SZR-104, N-(2-(dimethylamino)ethyl)-3-(morpholinomethyl)-4-hydroxyquinoline-2-carboxamide]
- TNF-α production [2]: reduced
- mRNA expression of TSG-6 [2]: increased
- Population spike activity in the hippocampus (hippocampus): decreased
- Protection against pentylenetetrazol-induced epileptiform seizures (hippocampus): provided protection
- Papp % (permeability coefficient compared to KYNA) ([1]; 30 min): 210%
- Papp% (permeability coefficient compared to sodium-fluorescein) ([1]; 60 min): 325%
- Papp % (permeability coefficient compared to KYNA) ([1]; 60 min): 222%
- Permeability compared to other analogues ([1]; 10 µM, 60 min): significantly higher
- Permeability compared to KYNA, xanthurenic acid or 39B ([1]; 10 µM, both at 30 min and 60 min, p < 0.01): significantly higher permeability
- BBB penetration compared to the other derivatives tested [1]: high BBB penetration

Structure (SMILES): O=C(O)c1[nH]c2c(O)cccc2c(=O)c1CN1CCOCC1 [39B, 8-Hydroxy-3-(Morpholinomethyl)-4-Oxo-1,4-Dihydroquinoline-2-Carboxylic Acid]
- Papp % (permeability coefficient compared to KYNA) ([1]; 30 min): 54%
- Papp % (permeability coefficient compared to KYNA) ([1]; 60 min): 74%
- Differences among permeability of KYNA, xanthurenic acid and 39B ([1]; 10 µM): not statistically significant

Structure (SMILES): CN(C)CCNC(=O)c1cc(=O)c2ccccc2[nH]1 [SZR-72, N-(2-N,N-dimethylaminoethyl)-4-oxo-1H-quinoline-2-carboxamide]
- Atrophy of the striatal neurons [3]: completely prevented
- Hypolocomotion [3]: ameliorated
- Lifetime of mice [3]: prolonged
- Nitroglycerin-induced neuronal activation in NTC (antihyperalgesic effect) (NTC): attenuating
- Electrical TRG stimulation-induced PACAP mRNA expression in NTC [4]: decreased
- Overexpression of MAPK and NFκB (MAPK and NFκB): reduced
- Elevated levels of c-fos and glutamate in NTC neurons [5]: abolished

Structure (SMILES): O=C(O)c1cc(=O)c2ccccc2[nH]1 [KYNA, kynurenic acid]
- Nitroglycerin-induced neuronal activation in NTC (antihyperalgesic effect) (NTC): attenuating
- Electrical TRG stimulation-induced PACAP mRNA expression in NTC [4]: decreased
- Overexpression of MAPK and NFκB (MAPK and NFκB): reduced
- Elevated levels of c-fos and glutamate in NTC neurons [5]: abolished
- Papp % (permeability coefficient compared to KYNA) ([1]; 30 min): 100%
- Papp % (permeability coefficient compared to KYNA) ([1]; 60 min): 100%
- Differences among permeability of KYNA, xanthurenic acid and 39B ([1]; 10 µM): not statistically significant

The next lines start with results.

- Papp% (permeability coefficient compared to sodium-fluorescein) ([1]; 60 min): 131%
Structure (SMILES): O=C(NCCN1CCCC1)c1nc2ccccc2c(O)c1CN1CCCCC1 [SZR-101]

- Papp% (permeability coefficient compared to sodium-fluorescein) ([1]; 60 min): 319%
- Permeability compared to other analogues ([1]; 10 µM, 60 min): significantly higher
- BBB penetration compared to the other derivatives tested [1]: high BBB penetration
Structure (SMILES): O=C(NCCN1CCCC1)c1nc2ccccc2c(O)c1CN1CCOCC1 [SZR-105]
- TNF-α production [2]: reduced
- mRNA expression of TSG-6 [2]: increased

- Papp% (permeability coefficient compared to sodium-fluorescein) ([1]; 60 min): 230%
Structure (SMILES): CN(C)CCNC(=O)c1nc2ccccc2c(O)c1CN1CCCC1 [SZR-106]

- Papp% (permeability coefficient compared to sodium-fluorescein) ([1]; 60 min): 177%
Structure (SMILES): CN(C)CCNC(=O)c1nc2ccccc2c(O)c1CN1CCCCC1 [SZR-100]

- Papp% (permeability coefficient compared to sodium-fluorescein) ([1]; 60 min): 156%
Structure (SMILES): O=C(NCCN1CCCC1)c1nc2ccccc2c(O)c1CN1CCCC1 [SZR-107]
